Data reported in ChEMBL document CHEMBL1129537, “The squalestatins: inhibitors of squalene synthase. Enzyme inhibitory activities and in vivo evaluation of C3-modified analogues” (J Med Chem, 1996).

What was measured:
[1] = molecular target: T1, Squalene synthase (Rattus norvegicus, UniProt Q02769); assay: In vitro inhibitory activity against Squalene synthase from rats
T1 sequence (Q02769 whole entry): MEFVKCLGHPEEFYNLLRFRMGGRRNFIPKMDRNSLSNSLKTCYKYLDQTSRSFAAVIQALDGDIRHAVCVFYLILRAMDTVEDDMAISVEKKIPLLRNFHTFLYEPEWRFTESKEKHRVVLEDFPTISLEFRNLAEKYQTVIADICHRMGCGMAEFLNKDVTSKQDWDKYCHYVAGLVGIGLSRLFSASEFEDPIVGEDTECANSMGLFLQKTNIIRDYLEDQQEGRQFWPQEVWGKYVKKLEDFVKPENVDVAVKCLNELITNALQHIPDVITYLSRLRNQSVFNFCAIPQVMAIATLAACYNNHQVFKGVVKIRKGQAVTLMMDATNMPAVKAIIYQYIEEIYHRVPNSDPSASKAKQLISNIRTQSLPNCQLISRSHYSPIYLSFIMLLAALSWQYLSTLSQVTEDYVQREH

[2] = Effect on % of cholesterol reduction measured on serum cholesterol level in marmosets after single iv dose 10 mg/kg on day 3; format: functional, Callitrichinae
[3] = Effect on % of cholesterol reduction measured on serum cholesterol level in marmosets after single iv dose 30 mg/kg on day 3; format: functional, Callitrichinae
[4] = Effect on % of cholesterol reduction measured on serum cholesterol level in marmosets after single iv dose 50 mg/kg on day 3; format: functional, Callitrichinae
[5] = Effect on % of cholesterol reduction measured on serum cholesterol level in marmosets after single iv dose 10 mg/kg on day 2; format: functional, Callitrichinae
[6] = Effect on % of cholesterol reduction measured on serum cholesterol level in marmosets after single iv dose 16.7 mg/kg on day 3; format: functional, Callitrichinae
[7] = Effect on % of cholesterol reduction measured on serum cholesterol level in marmosets after single iv dose 50 mg/kg on day 7; format: functional, Callitrichinae
[8] = Effect on % of cholesterol reduction measured on serum cholesterol level in marmosets after single iv dose 30 mg/kg on day 7; format: functional, Callitrichinae
[9] = Effect on % of cholesterol reduction measured on serum cholesterol level in marmosets after single iv dose (3 times a day for 3 days) 16.7 mg/kg on day 7; format: functional, Callitrichinae
[10] = Effect on % of cholesterol reduction measured on serum cholesterol level in marmosets after single iv dose 50 mg/kg on day 2; format: functional, Callitrichinae
[11] = Effect on % of cholesterol reduction measured on serum cholesterol level in marmosets after single iv dose 16.7 mg/kg on day 2; format: functional, Callitrichinae
[12] = Effect on % of cholesterol reduction measured on serum cholesterol level in marmosets after single iv dose 30 mg/kg on day 2; format: functional, Callitrichinae
[13] = Effect on % of cholesterol reduction measured on serum cholesterol level in marmosets after single iv dose 10 mg/kg on day 7; format: functional, Callitrichinae

IC50 [1] [nM]	SMILES	also measured
3	C=C(CC[C@]12O[C@H](CNC(N)=O)[C@@](O)(C(=O)O)[C@](C(=O)O)(O1)[C@H](OC(=O)/C=C/[C@@H](C)C[C@@H](C)CC)[C@H]2O)[C@@H](OC(C)=O)[C@H](C)Cc1ccccc1	–
> 1000	C=C(CC[C@]12O[C@H](COC)[C@@](O)(C(=O)O)[C@](C(=O)O)(O1)[C@H](O)[C@H]2O)[C@@H](OC(C)=O)[C@H](C)Cc1ccccc1	–
> 1000	C=C(CC[C@]12O[C@H](CN)[C@@](O)(C(=O)O)[C@](C(=O)O)(O1)[C@H](O)[C@H]2O)[C@@H](OC(C)=O)[C@H](C)Cc1ccccc1	–
4	C=C(CC[C@]12O[C@H](CN)[C@@](O)(C(=O)O)[C@](C(=O)O)(O1)[C@H](OC(=O)/C=C/[C@@H](C)C[C@@H](C)CC)[C@H]2O)[C@@H](OC(C)=O)[C@H](C)Cc1ccccc1	–
10	C=C(CC[C@]12O[C@H](CN(C)C)[C@@](O)(C(=O)O)[C@](C(=O)O)(O1)[C@H](OC(=O)/C=C/[C@@H](C)C[C@@H](C)CC)[C@H]2O)[C@@H](OC(C)=O)[C@H](C)Cc1ccccc1	–
13	C=C(CC[C@]12O[C@H](COC)[C@@](O)(C(=O)O)[C@](C(=O)O)(O1)[C@H](OC(=O)/C=C/[C@@H](C)C[C@@H](C)CC)[C@H]2O)[C@@H](OC(C)=O)[C@H](C)Cc1ccccc1	–
> 1000	C=C(CC[C@]12O[C@H](CNC(N)=O)[C@@](O)(C(=O)O)[C@](C(=O)O)(O1)[C@H](O)[C@H]2O)[C@@H](OC(C)=O)[C@H](C)Cc1ccccc1	–
1000	C=C(CC[C@]12O[C@H](CNS(=O)(=O)C(F)(F)F)[C@@](O)(C(=O)O)[C@](C(=O)O)(O1)[C@H](O)[C@H]2O)[C@@H](OC(C)=O)[C@H](C)Cc1ccccc1	–
65	C=C(CC[C@]12O[C@H](CN=C(N)N)[C@@](O)(C(=O)O)[C@](C(=O)O)(O1)[C@H](OC(=O)/C=C/[C@@H](C)C[C@@H](C)CC)[C@H]2O)[C@@H](OC(C)=O)[C@H](C)Cc1ccccc1	–
11	C=C(CC[C@]12O[C@H](C(C)=O)[C@@](O)(C(=O)O)[C@](C(=O)O)(O1)[C@H](OC(=O)/C=C/[C@@H](C)C[C@@H](C)CC)[C@H]2O)[C@@H](OC(C)=O)[C@H](C)Cc1ccccc1	–
–	C=C(CC[C@]12O[C@H](CO)[C@@](O)(C(=O)O)[C@](C(=O)O)(O1)[C@H](OC(=O)/C=C/[C@@H](C)C[C@@H](C)CC)[C@H]2O)[C@@H](OC(C)=O)[C@H](C)Cc1ccccc1	Reduction [2]: 2%; Reduction [3]: 20%; Reduction [4]: 21%; Reduction [5]: 5%; Reduction [6]: 62%; Reduction [7]: 28%; Reduction [8]: 16%; Reduction [9]: 32%; Reduction [10]: 31%; Reduction [11]: 47%; Reduction [12]: 30%; Reduction [13]: 14%
500	C=C(CC[C@]12O[C@H](C(C)=O)[C@@](O)(C(=O)O)[C@](C(=O)O)(O1)[C@H](O)[C@H]2O)[C@@H](OC(C)=O)[C@H](C)Cc1ccccc1	–
60	C=C(CC[C@]12O[C@H](CNS(=O)(=O)C(F)(F)F)[C@@](O)(C(=O)O)[C@](C(=O)O)(O1)[C@H](OC(=O)/C=C/[C@@H](C)C[C@@H](C)CC)[C@H]2O)[C@@H](OC(C)=O)[C@H](C)Cc1ccccc1	–
